Assays:
aldose reductase = molecular target: T1, aldose reductase (Bos taurus, UniProt P16116); assay: inhibition of aldose reductase enzyme activity (partially purified enzyme from calf lens); format: biochemical; conditions: for inhibition at 1 µM: 10^-6 M, partially purified aldose reductase from calf lens; for aldose reductase inhibitory activity (in words): qualitative statement, no concentration given
T1 construct: partially purified aldose reductase enzyme obtained from calf lens; from tissue; host or cells: calf lens
Protocol: (§1) The activity of the compounds of the present invention, as agents for the control of chronic diabetic complications, is determined by their ability to successfully pass one or more of the following standard biological or pharmacological tests, viz., (1) measuring their ability to inhibit the enzyme activity of isolated aldose reductase; (2) measuring their ability to reduce or inhibit sorbitol accumulation in the sciatic nerve of acutely streptozotocinized (i.e., diabetic) rats; (3) measuring their ability to reverse already-elevated sorbitol levels in the sciatic nerve and lens of chronic streptozotocin-induced diabetic rats; (4) measuring their ability to prevent or inhibit galactitol formation in the lens of acutely galactosemic rats, and (5) measuring their ability to delay cataract formation and reduce the severity of lens opacities in chronic galactosemic rats.
The following spiro-oxindole imidazolidinedione final products of Examples 1-5, respectively, were tested at a concentration level of 10^-6 M for their ability to reduce or inhibit aldose reductase enzyme activity via the procedure of S. Hayman et al., as described in the Journal of Biological Chemistry, Vol. 240, p. 877 (1965) and as modified by K. Sestanj et al. in U.S. Pat. No. 3,821,383. In every case, the substrate employed was partially purified aldose reductase enzyme obtained from calf lens.

[1] = test system: sorbitol levels in diabetic rats; assay: inhibition of the formation of sorbitol levels in diabetic rats, oral; format: in vivo, rat; conditions: dose levels ranging from 0.5 mg/kg to 20 mg/kg
From the text: As previously indicated, the spiro-oxindole imidazolidinedione compounds of this invention are readily adapted to therapeutic use as aldose reductase inhibitors for the control of chronic diabetic complications, in view of their ability to reduce lens sorbitol levels in diabetic subjects to a statistically significant degree. […] Furthermore, the herein described compounds of this invention can be administered by either the oral or parenteral routes of administration. […]
as §1

SMILES | inhibition at 1 µM (aldose reductase) [%] | aldose reductase inhibitory activity (in words) (aldose reductase) | inhibition of the formation of sorbitol levels in diabetic rats (in words) [1]
Nc1ccc2c(c1)NC(=O)C21NC(=O)NC1=O (centres unmarked) [Example 4, 6'-amino-spiro-[imidazolidine-4,3'-indoline]-2,2',5-trione] | 27 | highly potent | –
O=C1NC(=O)C2(N1)C(=O)N(Cc1cccnc1)c1c(Cl)cc(Cl)cc12 (centres unmarked) [Example 2, 1'-(3-pyridymethyl)-5',7'-dichloro-spiro-[imidazolidine-4,3'-indoline]-2,2',5-trione] | 81 | highly potent | significantly high degree
O=C1NC(=O)C2(N1)C(=O)N(Cc1cccnc1)c1ccc(F)cc12 (centres unmarked) [Example 3, 1'-(3-pyridylmethyl)-5'-fluorospiro-[imidazolidine-4,3'-indoline]-2,2',5-trione] | 71 | highly potent | –
O=C1NC(=O)C2(N1)C(=O)Nc1cnccc12 (centres unmarked) [Example 5, spiro-[imidazolidine-4,3'-(6-azaindoline)]-2,2',5-trione] | 49 | highly potent | –
Nc1cc(Cl)cc2c1NC(=O)C21NC(=O)NC1=O (centres unmarked) [Example 1, 5'-chloro-7'-amino-spiro-[imidazolidine-4,3'-indolidine]-2,2',5-trione] | 72 | highly potent | –

Source: patent publication US4533667A, “Imidazolidinedione derivatives” (Pfizer Inc., priority 1984, dated 1985)
